The record followed here is patent publication US20240343704A1, “HALO-SUBSTITUTED AMINO PYRIDINE COMPOUNDS AS INHIBITORS OF THE HAEMATOPOIETIC PROGENITOR KINASE 1 (HPK1)” (priority 2021, published 2024).

The target in test [1] is T1, Recombinant (1-346) HPK1 (h) (Homo sapiens, UniProt Q92918).
T1 construct: Recombinant (1-346) HPK1 (h) is incubated with 8 mM MOPS pH 7.0
T1 sequence (Q92918 1-346): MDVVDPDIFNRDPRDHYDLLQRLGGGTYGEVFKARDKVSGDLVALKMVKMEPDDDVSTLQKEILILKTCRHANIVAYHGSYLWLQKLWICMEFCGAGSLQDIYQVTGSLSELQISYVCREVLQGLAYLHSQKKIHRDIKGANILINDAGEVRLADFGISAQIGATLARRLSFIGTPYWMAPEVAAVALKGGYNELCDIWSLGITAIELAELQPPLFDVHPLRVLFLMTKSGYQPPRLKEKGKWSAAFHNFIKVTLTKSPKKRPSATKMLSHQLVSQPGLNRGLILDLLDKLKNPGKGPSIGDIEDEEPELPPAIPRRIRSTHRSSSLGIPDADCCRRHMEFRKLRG
In words: HPK1 Human STE Kinase Enzymatic Radiometric Assay. The note with it: read-out: HPK1 IC50 nM Range*. Type of test: biochemical. On the procedure:
A stock solution of 10 mM of test compound is prepared in DMSO. The compound plate was prepared by 3-fold and 9-point serial dilutions. […] The reaction is initiated by The addition of the Mg/ATP mix. After incubation for 40 minutes at RT, the reaction is stopped by the addition of phosphoric acid to a concentration of 0.5%.

A further test has as its target Lck (h) (Homo sapiens, UniProt P06239). The test can be described thus: Lck Human  Kinase Enzymatic Radiometric Assay. The following applies: read-out: Lck IC50 nM Range*. The test is classed as biochemical. The method in brief:
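Substrate 33P-incorporation measured by scintillation counting after spotting on P30 filtermat and phosphoric acid washes. Human Lck reacted 40 min at RT in 50 mM Tris pH 7.5 with 10 mM MgAcetate, [gamma-33P]-ATP, 250 uM Cdc2 peptide, 0.1 mM EGTA and 0.1 mM Na3VO4.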

Lck (h), sequence (P06239 whole entry): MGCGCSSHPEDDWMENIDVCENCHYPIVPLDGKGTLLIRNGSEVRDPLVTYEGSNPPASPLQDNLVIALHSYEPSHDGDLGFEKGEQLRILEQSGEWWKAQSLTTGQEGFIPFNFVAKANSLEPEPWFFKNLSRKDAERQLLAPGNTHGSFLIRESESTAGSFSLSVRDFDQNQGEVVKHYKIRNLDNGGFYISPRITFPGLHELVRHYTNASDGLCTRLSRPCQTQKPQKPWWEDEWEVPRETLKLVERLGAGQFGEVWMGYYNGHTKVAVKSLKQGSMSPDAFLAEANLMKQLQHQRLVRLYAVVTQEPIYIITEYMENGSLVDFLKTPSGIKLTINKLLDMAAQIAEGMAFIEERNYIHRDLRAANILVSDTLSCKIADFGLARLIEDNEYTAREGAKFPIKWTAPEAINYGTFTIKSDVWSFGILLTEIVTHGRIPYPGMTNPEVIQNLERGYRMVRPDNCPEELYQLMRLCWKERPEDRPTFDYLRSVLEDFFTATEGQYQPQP

The IC50 is the concentration that gives 50% inhibition. Consider `CC(C)N1CCN(c2ccc(-c3cc(-c4cc(F)c5c(c4)CCNC5=O)c(N)nc3F)cc2F)CC1` [I-386, 6-(2-amino-6-fluoro-5-(3-fluoro-4-(4-isopropylpiperazin-1-yl)phenyl)pyridin-3-yl)-8-fluoro-3,4-dihydroisoquinolin-1(2H)-one], for which the IC50 (in test [1]; on Lck (h)) was 0.1 to 10 nM throughout.
As for `Nc1nc(F)c(-c2ccc(N3CCN(CCC4CC4)CC3)cc2)cc1-c1ccc2c(=O)[nH]ccc2c1` [I-389, 6-(2-amino-5-(4-(4-(2-cyclopropylethyl)piperazin-1-yl)phenyl)-6-fluoropyridin-3-yl)isoquinolin-1(2H)-one], the IC50 in test [1] was 0.1 to 10 nM; at Lck (h) it was greater than 1000 nM.
Regarding `C[C@H](C1CC1)N1CCN(c2ccc(-c3cc(-c4cc(F)c5c(c4)CCNC5=O)c(N)nc3F)cc2)CC1` [I-390, (R)-6-(2-amino-5-(4-(4-(1-cyclopropylethyl)piperazin-1-yl)phenyl)-6-fluoropyridin-3-yl)-8-fluoro-3,4-dihydroisoquinolin-1(2H)-one], the IC50 in test [1] lay within 0.1 to 10 nM; at Lck (h), 101 to 1000 nM.
For the molecule `C[C@H](C1CC1)N1CCN(c2ccc(-c3cc(-c4cc(F)c5c(=O)[nH]ccc5c4)c(N)nc3F)cc2)CC1` [I-391, (R)-6-(2-amino-5-(4-(4-(1-cyclopropylethyl)piperazin-1-yl)phenyl)-6-fluoropyridin-3-yl)-8-fluoroisoquinolin-1(2H)-one], the IC50 in test [1] lay in the range of 0.1 to 10 nM; on Lck (h) it was 101 to 1000 nM.
In the same order, the values of `C[C@@H](C1CC1)N1CCN(c2ccc(-c3cc(-c4cc(F)c5c(=O)[nH]ccc5c4)c(N)nc3F)cc2)CC1` [I-393, (S)-6-(2-amino-5-(4-(4-(1-cyclopropylethyl)piperazin-1-yl)phenyl)-6-fluoropyridin-3-yl)-8-fluoroisoquinolin-1(2H)-one] are 0.1 to 10 nM and 101 to 1000 nM.
Taken in the same sequence, the figures for `CCN1CCN(c2ccc(-c3cc(-c4cc(F)c5c(=O)[nH]ccc5c4)c(N)nc3F)cc2)CC1` [I-394, 6-(2-amino-5-(4-(4-ethylpiperazin-1-yl)phenyl)-6-fluoropyridin-3-yl)-8-fluoroisoquinolin-1(2H)-one] were 0.1 to 10 nM and 101 to 1000 nM.
In the same order, the values of `Nc1nc(F)c(-c2ccc(N3CCOCC3)cc2)cc1-c1cc(F)c2c(=O)[nH]ccc2c1` [I-396, 6-(2-amino-6-fluoro-5-(4-morpholinophenyl)pyridin-3-yl)-8-fluoroisoquinolin-1(2H)-one] are 0.1 to 10 nM and greater than 1000 nM.
On to `CC(C)N1CCN(c2ccc(-c3cc(-c4cc5c(cn4)C(=O)NCC5)c(N)nc3F)cc2)CC1` [I-398, 6-(2-amino-6-fluoro-5-(4-(4-isopropylpiperazin-1-yl)phenyl)pyridin-3-yl)-3,4-dihydro-2,7-naphthyridin-1(2H)-one], for which the IC50 was in the range of 0.1 to 10 nM in test [1] and 101 to 1000 nM on Lck (h).
On to `Nc1nc(F)c(-c2ccc(N3CCN(CC4CC4)CC3)cc2)cc1-c1cc2c(cn1)C(=O)NCC2` [I-400, 6-(2-amino-5-(4-(4-(cyclopropylmethyl)piper-azin-1-yl)phenyl)-6-fluoropyridin-3-yl)-3,4-dihydro-2,7-naphthyridin-1(2H)-one], for which the half-maximal inhibitory concentration (IC50) in test [1] was in the range of 0.1 to 10 nM; on Lck (h), 101 to 1000 nM.
Taken in the same sequence, the figures for `CC(C)N1CCN(c2ccc(-c3cc(-c4cc5cc[nH]c(=O)c5cn4)c(N)nc3F)cc2)CC1` [I-401, 6-(2-amino-6-fluoro-5-(4-(4-isopropylpiperazin-1-yl)phenyl)pyridin-3-yl)-2,7-naphthyridin-1(2H)-one] were 0.1 to 10 nM and greater than 1000 nM.
In the case of `CC(C)N1CCN(c2ccc(-c3cc(-c4cnc5c(=O)[nH]ccc5c4)c(N)nc3F)cc2)CC1` [I-402, 3-(2-amino-6-fluoro-5-(4-(4-isopropylpiperazin-1-yl)phenyl)pyridin-3-yl)-1,7-naphthyridin-8(7H)-one], the IC50 in test [1] is 0.1 to 10 nM; at Lck (h), greater than 1000 nM.
Taken in the same sequence, the figures for `CC(C)N1CCN(c2ccc(-c3cc(-c4cc(F)c5c(=O)[nH]cnc5c4)c(N)nc3F)cc2)CC1` [I-405, 7-(2-amino-6-fluoro-5-(4-(4-isopropylpiperazin-1-y)phenyl)pyridin-3-yl)-5-fluoroquinazolin-4(3H)-one] were 0.1 to 10 nM and greater than 1000 nM.
With `CC(C)N1CCN(c2ccc(-c3cc(-c4cc5nc[nH]c(=O)c5cc4F)c(N)nc3F)cc2)CC1` [I-406, 7-(2-amino-6-fluoro-5-(4-(4-isopropylpiperazin-1-yl)phenyl)pyridin-3-yl)-6-fluoroquinazolin-4(3H)-one], the IC50 in test [1] is 0.1 to 10 nM; at Lck (h), greater than 1000 nM.
For `Nc1nc(F)c(-c2ccc(N3CCN(CC4CC4)CC3)cc2)cc1-c1cc(F)c2c(=O)[nH]cnc2c1` [I-407, 7-(2-amino-5-(4-(4-(cyclopropylmethyl)piper-azin-1-yl)phenyl)-6-fluoropyridin-3-yl)-5-fluoroquinazolin-4(3H)-one], the IC50 was 0.1 to 10 nM in test [1] and greater than 1000 nM on Lck (h).
Take `Nc1nc(F)c(-c2ccc(N3CCN(CC4CC4)CC3)cc2)cc1-c1cc2nc[nH]c(=O)c2cc1F` [I-408, 7-(2-amino-5-(4-(4-(cyclopropylmethyl)piper-azin-1-yl)phenyl)-6-fluoropyridin-3-yl)-6-fluoroquinazolin-4(3H)-one]: the values for the IC50 (in test [1]; on Lck (h)) were 0.1 to 10 nM and greater than 1000 nM, respectively.
In the same order, the values of `Cc1nc2cc(-c3cc(-c4ccc(N5CCN(C(C)C)CC5)cc4)c(F)nc3N)ccc2c(=O)[nH]1` [I-409, 7-(2-amino-6-fluoro-5-(4-(4-isopropylpiperazin-1-yl)phenyl)pyridin-3-yl)-2-methylquinazolin-4(3H)-one] are 0.1 to 10 nM and greater than 1000 nM.
In the same order, the values of `CNCc1nc2cc(-c3cc(-c4ccc(N5CCN(C(C)C)CC5)cc4)c(F)nc3N)ccc2c(=O)[nH]1` [I-410, 7-(2-amino-6-fluoro-5-(4-(4-isopropylpiperazin-1-yl)phenyl)pyridin-3-yl)-2-((methylamino)methyl)quin-azolin-4(3H)-one] are 11 to 100 nM and greater than 1000 nM.
Taken in the same sequence, the figures for `Cc1nc2cc(-c3cc(-c4ccc(N5CCN(CC6CC6)CC5)cc4)c(F)nc3N)ccc2c(=O)[nH]1` [I-411, 7-(2-amino-5-(4-(4-(cyclopropylmethyl)piper-azin-1-yl)phenyl)-6-fluoropyridin-3-yl)-2-methylquinazolin-4(3H)-one] were 11 to 100 nM and greater than 1000 nM.
On to `Cc1nc2cc(-c3cc(-c4ccc(N5CCN(C(C)C)CC5)cc4)c(F)nc3N)cc(F)c2c(=O)[nH]1` [I-414, 7-(2-amino-6-fluoro-5-(4-(4-isopropylpiperazin-1-yl)phenyl)pyridin-3-yl)-5-fluoro-2-methylquinazolin-4(3H)-one], for which the IC50 in test [1] is 0.1 to 10 nM; on Lck (h), greater than 1000 nM.
In the same order, the values of `Cc1nc2cc(-c3cc(-c4ccc(N5CCN(CC6CC6)CC5)cc4)c(F)nc3N)cc(F)c2c(=O)[nH]1` [I-416, 7-(2-amino-5-(4-(4-(cyclopropylmethyl)piper-azin-1-yl)phenyl)-6-fluoropyridin-3-yl)-5-fluoro-2-methylquinazolin-4(3H)-one] are 0.1 to 10 nM and greater than 1000 nM.
